Experimental findings from ChEMBL document CHEMBL3596148, “Meridianin derivatives as potent Dyrk1A inhibitors and neuroprotective agents” (Bioorg Med Chem Lett, 2015) are described below.

Data set [1] can be described thus: Cytotoxicity against human SH-SY5Y cells assessed as cell viability at 30 uM after 24 hrs by MTT assay relative to control. The format is cell-based. The conditions noted are these: read-out: Activity.
Data set [2] deals with AMP-activated protein kinase, AMPK (Homo sapiens) (UniProt P54646+O43741+P54619+Q9UGJ0+Q9Y478+Q13131+Q9UGI9). Nature of the data set: Inhibition of AMPK (unknown origin) at 0.5 uM relative to control. The format is protein-complex assay.
The target of data set [3] is Aurora kinase B (Homo sapiens) (UniProt Q96GD4). Nature of the data set: Inhibition of Aurora B (unknown origin) at 0.5 uM relative to control.
Data set [4] addresses Glycogen synthase kinase-3 beta (Homo sapiens) (UniProt P49841). Nature of the data set: Inhibition of GSK3beta (unknown origin) at 0.5 uM relative to control.
The target of data set [5] is Vascular endothelial growth factor receptor 1 (Homo sapiens) (UniProt P17948). Description: Inhibition of VEGFR1 (unknown origin) at 0.5 uM relative to control.
Data set [6] deals with RAC-alpha serine/threonine-protein kinase (Homo sapiens) (UniProt P31749). Description: Inhibition of PKBalpha (unknown origin) at 0.5 uM relative to control.
The target in data set [7] is Cyclin-dependent kinase 9 (Homo sapiens) (UniProt P50750). Nature of the data set: Inhibition of CDK9 (unknown origin) at 0.5 uM relative to control.
Data set [8] concerns the target Protein kinase C alpha type (Homo sapiens) (UniProt P17252). Description: Inhibition of PKCalpha (unknown origin) at 0.5 uM relative to control.
Data set [9] addresses Tyrosine-protein kinase ABL1 (Homo sapiens) (UniProt P00519). Description: Inhibition of Abl (unknown origin) at 0.5 uM relative to control.
For data set [10], the target named is Insulin-like growth factor 1 receptor (Homo sapiens) (UniProt P08069). Nature of the data set: Inhibition of IGF-1R (unknown origin) at 0.5 uM relative to control.
In data set [11] the target is T1, Inhibitor of nuclear factor kappa-B kinase subunit beta (Homo sapiens) (UniProt O14920).
T1 sequence (whole entry): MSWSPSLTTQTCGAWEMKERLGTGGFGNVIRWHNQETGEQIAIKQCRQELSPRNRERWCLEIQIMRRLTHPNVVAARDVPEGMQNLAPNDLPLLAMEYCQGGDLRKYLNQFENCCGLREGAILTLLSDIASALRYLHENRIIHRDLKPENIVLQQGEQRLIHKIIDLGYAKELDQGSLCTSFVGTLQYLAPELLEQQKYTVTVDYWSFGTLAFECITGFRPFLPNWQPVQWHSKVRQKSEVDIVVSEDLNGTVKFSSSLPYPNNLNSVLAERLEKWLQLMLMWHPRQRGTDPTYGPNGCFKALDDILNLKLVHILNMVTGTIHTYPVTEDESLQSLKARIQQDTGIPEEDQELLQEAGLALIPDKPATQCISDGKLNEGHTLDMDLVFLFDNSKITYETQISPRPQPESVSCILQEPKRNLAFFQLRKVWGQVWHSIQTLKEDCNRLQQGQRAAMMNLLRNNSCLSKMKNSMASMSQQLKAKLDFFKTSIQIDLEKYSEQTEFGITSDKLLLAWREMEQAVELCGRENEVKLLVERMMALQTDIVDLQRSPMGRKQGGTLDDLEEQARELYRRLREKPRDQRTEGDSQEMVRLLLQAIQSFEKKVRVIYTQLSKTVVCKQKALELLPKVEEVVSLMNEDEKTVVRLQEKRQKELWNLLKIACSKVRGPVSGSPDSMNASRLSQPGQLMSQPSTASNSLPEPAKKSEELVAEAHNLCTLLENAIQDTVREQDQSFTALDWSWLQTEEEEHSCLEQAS
Description: Inhibition of IKKbeta (unknown origin) at 0.5 uM relative to control.

The target of data set [12] is Insulin receptor (Homo sapiens) (UniProt P06213). Description: Inhibition of IR (unknown origin) at 0.5 uM relative to control.
For data set [13], the target named is Cyclin-dependent kinase 2 (Homo sapiens) (UniProt P24941). Nature of the data set: Inhibition of CDK2 (unknown origin) at 0.5 uM relative to control.
The target in data set [14] is Casein kinase I isoform alpha (Homo sapiens) (UniProt P48729). Nature of the data set: Inhibition of CK1 (unknown origin) at 0.5 uM relative to control.
For data set [15], the target named is T2, Aurora kinase A (Homo sapiens) (UniProt O14965).
T2 sequence (whole entry): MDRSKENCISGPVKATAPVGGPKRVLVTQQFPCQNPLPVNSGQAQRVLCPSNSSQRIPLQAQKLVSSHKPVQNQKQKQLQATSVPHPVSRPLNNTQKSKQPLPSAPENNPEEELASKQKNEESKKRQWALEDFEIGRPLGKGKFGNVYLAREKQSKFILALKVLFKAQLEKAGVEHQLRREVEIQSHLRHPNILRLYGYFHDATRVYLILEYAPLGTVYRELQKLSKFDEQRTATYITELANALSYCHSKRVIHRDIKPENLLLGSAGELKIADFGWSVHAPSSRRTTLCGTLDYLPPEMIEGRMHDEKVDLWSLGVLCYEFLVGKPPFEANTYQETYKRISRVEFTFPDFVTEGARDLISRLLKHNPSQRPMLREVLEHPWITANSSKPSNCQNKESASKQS
Nature of the data set: Inhibition of Aurora A (unknown origin) at 0.5 uM relative to control.

In data set [16] the target is RAC-beta serine/threonine-protein kinase (Homo sapiens) (UniProt P31751). Nature of the data set: Inhibition of PKBbeta (unknown origin) at 0.5 uM relative to control.
RAC-beta serine/threonine-protein kinase (Homo sapiens), sequence (P31751 whole entry): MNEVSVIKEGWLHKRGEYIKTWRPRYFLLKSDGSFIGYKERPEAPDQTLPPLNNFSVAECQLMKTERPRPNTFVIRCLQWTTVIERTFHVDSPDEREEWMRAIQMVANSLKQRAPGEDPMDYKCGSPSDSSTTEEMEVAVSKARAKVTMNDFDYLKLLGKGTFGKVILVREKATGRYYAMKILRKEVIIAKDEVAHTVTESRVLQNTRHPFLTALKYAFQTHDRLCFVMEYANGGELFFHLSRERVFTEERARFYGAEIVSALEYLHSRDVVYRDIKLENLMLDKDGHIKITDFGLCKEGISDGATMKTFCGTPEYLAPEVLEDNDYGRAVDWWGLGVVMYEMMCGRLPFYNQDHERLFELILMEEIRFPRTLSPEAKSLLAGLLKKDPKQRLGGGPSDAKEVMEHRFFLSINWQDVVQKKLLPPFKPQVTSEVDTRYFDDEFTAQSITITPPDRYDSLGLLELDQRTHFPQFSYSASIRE

Insulin-like growth factor 1 receptor (Homo sapiens), sequence (P08069 31-736 limits assumed): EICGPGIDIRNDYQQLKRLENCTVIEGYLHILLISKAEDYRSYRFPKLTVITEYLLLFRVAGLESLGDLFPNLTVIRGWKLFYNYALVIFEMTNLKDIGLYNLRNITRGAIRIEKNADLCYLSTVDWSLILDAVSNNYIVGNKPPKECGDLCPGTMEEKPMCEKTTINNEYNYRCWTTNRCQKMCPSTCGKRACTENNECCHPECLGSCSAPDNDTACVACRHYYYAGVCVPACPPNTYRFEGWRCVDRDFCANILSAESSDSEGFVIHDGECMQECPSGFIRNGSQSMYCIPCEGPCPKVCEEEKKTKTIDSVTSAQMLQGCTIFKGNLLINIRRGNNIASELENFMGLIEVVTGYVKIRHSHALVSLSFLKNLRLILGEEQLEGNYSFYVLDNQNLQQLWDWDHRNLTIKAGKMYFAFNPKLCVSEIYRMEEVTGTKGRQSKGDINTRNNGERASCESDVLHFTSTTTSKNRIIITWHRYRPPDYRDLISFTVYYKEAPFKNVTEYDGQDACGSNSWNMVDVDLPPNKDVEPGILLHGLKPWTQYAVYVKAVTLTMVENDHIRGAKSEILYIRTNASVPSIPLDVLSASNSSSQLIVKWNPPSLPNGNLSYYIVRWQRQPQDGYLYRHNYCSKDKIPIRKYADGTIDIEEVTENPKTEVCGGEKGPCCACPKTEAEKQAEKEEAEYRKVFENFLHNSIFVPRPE
Insulin-like growth factor 1 receptor (Homo sapiens), sequence (P08069 741-1367 limits assumed): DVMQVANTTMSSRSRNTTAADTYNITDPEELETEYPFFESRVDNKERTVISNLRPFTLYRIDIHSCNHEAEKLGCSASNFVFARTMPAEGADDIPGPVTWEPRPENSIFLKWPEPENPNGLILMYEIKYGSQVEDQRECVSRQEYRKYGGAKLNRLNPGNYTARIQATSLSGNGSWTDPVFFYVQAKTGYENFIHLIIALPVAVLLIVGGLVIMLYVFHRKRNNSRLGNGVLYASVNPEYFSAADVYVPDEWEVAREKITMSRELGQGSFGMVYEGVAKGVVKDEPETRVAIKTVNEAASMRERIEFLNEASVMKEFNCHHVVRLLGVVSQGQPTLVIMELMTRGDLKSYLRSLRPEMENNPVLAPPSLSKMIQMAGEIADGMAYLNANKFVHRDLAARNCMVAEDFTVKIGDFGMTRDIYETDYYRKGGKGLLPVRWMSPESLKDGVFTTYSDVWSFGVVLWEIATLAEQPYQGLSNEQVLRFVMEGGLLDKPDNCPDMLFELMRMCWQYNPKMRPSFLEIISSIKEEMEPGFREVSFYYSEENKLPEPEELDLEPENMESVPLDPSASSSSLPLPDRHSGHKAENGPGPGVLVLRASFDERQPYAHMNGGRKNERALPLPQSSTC
Tyrosine-protein kinase ABL1 (Homo sapiens), sequence (P00519 whole entry): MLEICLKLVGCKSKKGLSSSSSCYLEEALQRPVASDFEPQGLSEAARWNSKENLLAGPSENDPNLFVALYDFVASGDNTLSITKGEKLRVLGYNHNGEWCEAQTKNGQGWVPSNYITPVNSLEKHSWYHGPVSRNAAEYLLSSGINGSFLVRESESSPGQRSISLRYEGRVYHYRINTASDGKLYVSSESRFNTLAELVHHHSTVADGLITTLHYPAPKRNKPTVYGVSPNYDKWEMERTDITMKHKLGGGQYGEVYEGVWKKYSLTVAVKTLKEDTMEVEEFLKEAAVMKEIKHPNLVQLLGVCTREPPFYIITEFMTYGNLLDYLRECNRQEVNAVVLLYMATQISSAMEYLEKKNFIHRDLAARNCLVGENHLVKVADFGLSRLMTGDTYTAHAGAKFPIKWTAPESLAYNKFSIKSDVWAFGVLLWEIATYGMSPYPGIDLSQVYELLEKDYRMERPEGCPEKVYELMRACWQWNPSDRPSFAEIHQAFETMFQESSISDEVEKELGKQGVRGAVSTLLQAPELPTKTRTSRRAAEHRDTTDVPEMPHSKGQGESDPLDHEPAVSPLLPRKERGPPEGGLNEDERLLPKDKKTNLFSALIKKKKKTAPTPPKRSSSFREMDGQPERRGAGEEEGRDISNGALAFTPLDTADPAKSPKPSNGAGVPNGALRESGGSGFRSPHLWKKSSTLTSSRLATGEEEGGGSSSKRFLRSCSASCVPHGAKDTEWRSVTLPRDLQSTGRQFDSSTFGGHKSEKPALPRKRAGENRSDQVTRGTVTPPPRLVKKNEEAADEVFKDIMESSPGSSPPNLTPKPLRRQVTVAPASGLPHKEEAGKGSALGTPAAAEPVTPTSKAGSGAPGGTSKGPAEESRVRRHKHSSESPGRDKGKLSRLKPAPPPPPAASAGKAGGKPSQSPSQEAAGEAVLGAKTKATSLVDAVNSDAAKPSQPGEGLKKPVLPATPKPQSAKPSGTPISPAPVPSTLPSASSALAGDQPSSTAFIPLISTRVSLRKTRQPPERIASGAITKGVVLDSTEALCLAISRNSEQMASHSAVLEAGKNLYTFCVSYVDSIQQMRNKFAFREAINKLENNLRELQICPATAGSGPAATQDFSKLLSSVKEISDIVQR
Aurora kinase B (Homo sapiens), sequence (Q96GD4 whole entry): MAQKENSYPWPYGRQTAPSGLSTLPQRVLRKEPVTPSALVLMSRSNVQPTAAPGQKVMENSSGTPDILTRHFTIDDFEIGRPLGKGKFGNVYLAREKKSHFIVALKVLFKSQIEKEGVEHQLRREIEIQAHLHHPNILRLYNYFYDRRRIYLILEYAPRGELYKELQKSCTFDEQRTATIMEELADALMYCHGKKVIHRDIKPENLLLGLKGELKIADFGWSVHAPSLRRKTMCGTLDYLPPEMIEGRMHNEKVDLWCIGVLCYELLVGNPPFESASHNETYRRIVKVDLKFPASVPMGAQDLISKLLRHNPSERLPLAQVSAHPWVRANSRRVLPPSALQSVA
RAC-alpha serine/threonine-protein kinase (Homo sapiens), sequence (P31749 whole entry): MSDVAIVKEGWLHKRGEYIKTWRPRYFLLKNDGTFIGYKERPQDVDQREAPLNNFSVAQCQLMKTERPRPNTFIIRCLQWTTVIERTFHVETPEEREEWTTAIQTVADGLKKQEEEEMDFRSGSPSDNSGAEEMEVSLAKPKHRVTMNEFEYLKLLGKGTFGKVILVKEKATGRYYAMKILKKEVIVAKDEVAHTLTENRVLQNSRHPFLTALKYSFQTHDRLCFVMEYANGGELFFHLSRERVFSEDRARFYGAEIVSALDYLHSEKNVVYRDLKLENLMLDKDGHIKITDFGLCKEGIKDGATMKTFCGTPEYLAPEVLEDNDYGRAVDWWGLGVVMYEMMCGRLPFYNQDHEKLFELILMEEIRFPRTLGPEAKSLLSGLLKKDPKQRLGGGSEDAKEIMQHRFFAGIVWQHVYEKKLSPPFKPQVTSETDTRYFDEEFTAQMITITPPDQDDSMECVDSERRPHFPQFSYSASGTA
Cyclin-dependent kinase 9 (Homo sapiens), sequence (P50750 whole entry): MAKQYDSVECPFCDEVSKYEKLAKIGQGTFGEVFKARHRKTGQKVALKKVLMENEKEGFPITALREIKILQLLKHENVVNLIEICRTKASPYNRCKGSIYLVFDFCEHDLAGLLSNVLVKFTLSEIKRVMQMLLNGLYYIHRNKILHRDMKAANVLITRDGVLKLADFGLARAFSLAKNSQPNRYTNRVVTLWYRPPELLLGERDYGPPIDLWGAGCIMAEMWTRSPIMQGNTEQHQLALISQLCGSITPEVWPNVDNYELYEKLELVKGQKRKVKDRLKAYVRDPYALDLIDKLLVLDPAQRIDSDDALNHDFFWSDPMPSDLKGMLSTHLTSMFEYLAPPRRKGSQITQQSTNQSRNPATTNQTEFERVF

In the case of `COc1ccc(S(=O)(=O)n2cc(-c3ccnc(N)n3)c3ccccc32)cc1`, the viability at 24 h, 30 µM in data set [1] was 58.8%.

As for `CC(=O)Nc1ccc(S(=O)(=O)n2cc(-c3ccnc(N)n3)c3cc(Br)ccc32)cc1`, the viability at 24 h, 30 µM in [1] came out at 71.6%.

In the case of `Nc1nccc(-c2cn(S(=O)(=O)c3ccc4ccccc4c3)c3ccccc23)n1`, the viability at 24 h, 30 µM in data set [1] was 61.6%.

For the compound `Nc1nccc(-c2cn(S(=O)(=O)c3ccc4c(c3)OCCO4)c3ccccc23)n1`, the viability at 24 h, 30 µM in data set [1] was found to be 59.4%.

`Nc1nccc(-c2cn(S(=O)(=O)c3ccc(Cl)cc3Cl)c3ccccc23)n1`: the viability at 24 h, 30 µM in [1] worked out at 55.4%.

As a reminder, the inhibition is the percentage by which the read-out fell short of the control. `Cc1noc(C)c1Cn1cc(-c2ccnc(N)n2)c2ccccc21`: the inhibition in [2] is 9.5%; in data set [3] it was 10.1%; in data set [4], 6.1%; in data set [5], 13.5%; in data set [6], 10.9%; in [7], 14%. The inhibition came to 36.9% in data set [8]; 6.3% in [9]; 0% in data set [10]; 3% in data set [11]; 17.7% in [12]; 0% in [13]. The inhibition in data set [14] came to 22.7%; in data set [15], 0%; in data set [16], 0%. Moreover, the viability at 24 h, 30 µM in data set [1] amounted to 88.5%.

Consider `Cc1cc(C)c(S(=O)(=O)n2cc(-c3ccnc(N)n3)c3cc(Br)ccc32)c(C)c1`, for which the viability at 24 h, 30 µM in data set [1] came to 109%.

Take `Nc1nccc(-c2cn(CN3C(=O)c4ccccc4C3=O)c3ccccc23)n1`: the viability at 24 h, 30 µM in [1] worked out at 101%.

For the compound `Nc1nccc(-c2cn(Cc3ccc(Cl)s3)c3ccc(Br)cc23)n1`, the viability at 24 h, 30 µM in data set [1] amounted to 24%.

On to `Nc1nccc(-c2cn(C(=O)c3ccccc3)c3ccccc23)n1`, for which, in [1], the viability at 24 h, 30 µM was 106%.

For `Cc1cc(C)c(S(=O)(=O)n2cc(-c3ccnc(N)n3)c3ccccc32)c(C)c1`, the viability at 24 h, 30 µM in data set [1] is 40%.

On to `COCCn1cc(-c2ccnc(N)n2)c2cc(Br)ccc21`, for which the viability at 24 h, 30 µM in data set [1] was found to be 75.3%.

Turning to `Nc1nccc(-c2cn(S(=O)(=O)c3ccc(F)cc3F)c3ccccc23)n1`, the viability at 24 h, 30 µM in data set [1] came out at 99.1%.

For the compound `Cc1c(C)c(C)c(S(=O)(=O)n2cc(-c3ccnc(N)n3)c3cc(Br)ccc32)c(C)c1C`, in [1], the viability at 24 h, 30 µM was 107%.

For the compound `Nc1nccc(-c2cn(S(=O)(=O)c3ccc(OC(F)(F)F)cc3)c3ccc(Br)cc23)n1`, in data set [1], the viability at 24 h, 30 µM was determined as 74%.

As to `Nc1nccc(-c2cn(S(=O)(=O)c3cc(C(F)(F)F)cc(C(F)(F)F)c3)c3ccccc23)n1`, the viability at 24 h, 30 µM in data set [1] was determined as 72.4%.

For `CC(C)(C)c1ccc(S(=O)(=O)n2cc(-c3ccnc(N)n3)c3ccccc32)cc1`, the viability at 24 h, 30 µM in [1] was determined as 86.3%.

With `Nc1nccc(-c2cn(S(=O)(=O)c3cccc(C(F)(F)F)c3)c3ccc(Br)cc23)n1`, in [1], the viability at 24 h, 30 µM came out at 38.8%.

For the compound `COc1ccc(S(=O)(=O)n2cc(-c3ccnc(N)n3)c3ccccc32)cc1OC`, the viability at 24 h, 30 µM in data set [1] was determined as 127%.

As to `Nc1nccc(-c2cn(S(=O)(=O)c3cccc(C(F)(F)F)c3)c3ccccc23)n1`, the viability at 24 h, 30 µM in data set [1] came to 76.1%.

As to `O=C1NC(c2c[nH]c3ccc(Br)cc23)Nc2ccccc21` (stereo not drawn), the viability at 24 h, 30 µM in data set [1] amounted to 41.5%.

Consider `N#Cc1ccc(S(=O)(=O)n2cc(-c3ccnc(N)n3)c3ccccc32)cc1`, for which the viability at 24 h, 30 µM in data set [1] worked out at 110%.

Take `COc1ccc(S(=O)(=O)n2cc(-c3ccnc(N)n3)c3cc(Br)ccc32)cc1`: in [1], the viability at 24 h, 30 µM amounted to 99%.

Turning to `CN1CCN(C(=O)n2cc(-c3ccnc(N)n3)c3cc(Br)ccc32)CC1`, the viability at 24 h, 30 µM in data set [1] turned out to be 91.8%.

As for `Cc1noc(C)c1Cn1cc(-c2ccnc(N)n2)c2cc(Br)ccc21`, in data set [1], the viability at 24 h, 30 µM turned out to be 83.1%.

Regarding `CC(C)(C)c1ccc(S(=O)(=O)n2cc(-c3ccnc(N)n3)c3cc(Br)ccc32)cc1`, the viability at 24 h, 30 µM in data set [1] turned out to be 109%.

Consider `Nc1nccc(-c2cn(S(=O)(=O)c3ccc(Br)cc3)c3ccccc23)n1`, for which the viability at 24 h, 30 µM in data set [1] stood at 91.4%.

Consider `COc1cccc(C(=O)n2cc(-c3ccnc(N)n3)c3ccccc32)c1`, for which the viability at 24 h, 30 µM in [1] came out at 94.6%.

As for `Nc1nccc(-c2cn(Cc3c4ccccc4cc4ccccc34)c3ccc(Br)cc23)n1`, in data set [1], the viability at 24 h, 30 µM is 79.8%.

As for `Nc1nccc(-c2cn(S(=O)(=O)c3ccc([N+](=O)[O-])cc3)c3ccc(Br)cc23)n1`, the viability at 24 h, 30 µM in [1] was 59%.

Regarding `O=C1NC(c2c[nH]c3ccccc23)Nc2ccccc21` (stereo not drawn), in data set [1], the viability at 24 h, 30 µM amounted to 83.1%.

In the case of `Nc1nccc(-c2cn(S(=O)(=O)c3ccc(C(F)(F)F)cc3)c3ccccc23)n1`, the viability at 24 h, 30 µM in [1] stood at 95.6%.

Turning to `Nc1nccc(-c2c[nH]c3ccc(Br)cc23)n1` [MERIDIANIN C], in data set [1], the viability at 24 h, 30 µM is 92.9%.

On to `Nc1nccc(-c2cn(C(=O)N3CCOCC3)c3ccccc23)n1`, for which, in [1], the viability at 24 h, 30 µM is 97.3%.

On to `Nc1nccc(-c2cn(S(=O)(=O)c3ccc4c(c3)OCCO4)c3ccc(Br)cc23)n1`, for which the viability at 24 h, 30 µM in [1] worked out at 112%.

Take `Nc1nccc(-c2cn(Cc3c4ccccc4cc4ccccc34)c3ccccc23)n1`: the viability at 24 h, 30 µM in [1] was determined as 96%.

On to `O=c1[nH]c(-c2c[nH]c3ccc(I)cc23)nc2ccccc12`, for which, in data set [1], the viability at 24 h, 30 µM came out at 24%.

On to `COc1ccc(Br)cc1S(=O)(=O)n1cc(-c2ccnc(N)n2)c2ccccc21`, for which the viability at 24 h, 30 µM in data set [1] was determined as 96.2%.

Regarding `N#Cc1ccc(S(=O)(=O)n2cc(-c3ccnc(N)n3)c3cc(Br)ccc32)cc1`, the viability at 24 h, 30 µM in [1] stood at 106%.

As to `Cc1ccsc1C(=O)n1cc(-c2ccnc(N)n2)c2ccccc21`, in data set [1], the viability at 24 h, 30 µM is 82%.

Regarding `Nc1nccc(-c2cn(S(=O)(=O)c3cc(C(F)(F)F)cc(C(F)(F)F)c3)c3ccc(Br)cc23)n1`, the viability at 24 h, 30 µM in data set [1] stood at 76.4%.

As for `CN1CCN(C(=O)n2cc(-c3ccnc(N)n3)c3ccccc32)CC1`, the viability at 24 h, 30 µM in data set [1] is 82%.

Regarding `Nc1nccc(-c2cn(S(=O)(=O)c3ccc(I)cc3)c3ccccc23)n1`, the viability at 24 h, 30 µM in [1] was 57.5%.

For `Nc1nccc(-c2cn(S(=O)(=O)c3ccc([N+](=O)[O-])cc3)c3ccccc23)n1`, the viability at 24 h, 30 µM in [1] was found to be 56%.

In the case of `CCOc1ccccc1C(=O)n1cc(-c2ccnc(N)n2)c2ccccc21`, the viability at 24 h, 30 µM in [1] is 46.6%.

On to `Nc1nccc(-c2cn(Cc3ccc(Cl)s3)c3ccccc23)n1`, for which the viability at 24 h, 30 µM in data set [1] is 115%.

Turning to `Cc1c(C)c(C)c(S(=O)(=O)n2cc(-c3ccnc(N)n3)c3ccccc32)c(C)c1C`, the viability at 24 h, 30 µM in data set [1] was 49%.

Take `Nc1nccc(-c2cn(S(=O)(=O)c3ccc(C(F)(F)F)cc3)c3ccc(Br)cc23)n1`: the viability at 24 h, 30 µM in data set [1] was found to be 85%.
